Experimental data reported in the kinase profiling compilation of Christmann-Franck et al. (2016).

What follows are compounds tested against SGK1 (human) (UniProt O00141) (assay: Flashplate).
Chain of SGK1 (human) (O00141 whole entry, looked up): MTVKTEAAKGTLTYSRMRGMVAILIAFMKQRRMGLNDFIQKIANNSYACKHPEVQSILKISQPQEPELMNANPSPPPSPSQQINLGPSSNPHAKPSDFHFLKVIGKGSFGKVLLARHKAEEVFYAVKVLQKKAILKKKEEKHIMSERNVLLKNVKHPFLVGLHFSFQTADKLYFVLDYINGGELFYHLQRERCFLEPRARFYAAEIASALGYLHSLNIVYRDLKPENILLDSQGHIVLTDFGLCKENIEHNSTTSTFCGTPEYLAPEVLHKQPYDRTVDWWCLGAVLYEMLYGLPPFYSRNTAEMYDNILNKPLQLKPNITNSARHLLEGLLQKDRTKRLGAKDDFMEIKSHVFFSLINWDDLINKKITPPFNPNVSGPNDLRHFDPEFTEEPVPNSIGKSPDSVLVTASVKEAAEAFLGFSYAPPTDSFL

SMILES	Ki [µM]
NC(=O)c1cc2c(-c3ccc(Br)c(F)c3F)cncc2s1	0.398
Cc1cc(O)ccc1-n1cc(C(=O)NN)c(=O)c2ccc(-c3ccncc3)cc21	> 10
Cc1cc(C)c(C)c(OCCCc2c(C(=O)O)[nH]c3c(-c4ccccc4C)cccc23)c1	> 10
Cc1cccc(NC(=O)Nc2ccc(-c3csc4ccnc(N)c34)cc2)c1	> 10
NC(=O)c1cc(Cl)cc2[nH]c(-c3ccc(C4CCCNC4)cc3F)nc12 (centres undefined)	> 10
Cc1cccc(NC(=O)Nc2ccc(-c3cccc(C(N)=O)c3)cc2)c1	> 10
COc1cc(CN2CCCCC2)c(Cl)cc1NC(=O)Nc1cnc(C#N)cn1	> 10
COc1cc(/C=C2/SC(=S)NC2=O)ccc1O	3.16
CC(=O)Nc1c(C(N)=O)sc2ccc(Cl)c(Cl)c12	3.98
COc1cc(-c2ccc3c(c2)Nc2ccc(C(=O)NCCNC(C)=O)cc2NC3=O)ccc1O	10
Nc1ccc(-c2cncc(OC[C@@H](N)Cc3c[nH]c4ccccc34)c2)cc1C(=O)c1cccc(Cl)c1	> 10
CNC1CCN(c2nc3[nH]cc(C(=O)O)c(=O)c3c(C)c2Br)C1 (centres undefined)	> 10
Cc1ccc(C(=O)Nc2c(C#N)sc3ccc(Cl)c(Cl)c23)cc1	> 10
N#Cc1ncc2nc1OCC(O)C(O)COc1ccc(Cl)cc1NC(=O)N2 (centres undefined)	> 10
CN1CC[C@H]1COc1cncc(CCc2ccncc2)c1	> 10
CNC(=O)C(C)n1cc(-c2cnc(N)c3c(-c4ccc(NC(=O)Nc5ccc(C)cc5)cc4)csc23)cn1 (centres undefined)	> 10
Cc1ccc(NC(=O)Nc2ccc(-c3csc4c(-c5cnn(C(C)C(=O)N(C)C)c5)cnc(N)c34)cc2)cc1 (centres undefined)	> 10
O=C1CC(c2ccc(Cl)cc2Cl)Cc2[nH]c3cc(Cl)ccc3c(=O)c21 (centres undefined)	> 10
Cc1cc(OC[C@@H]2CC[C@H](C(=O)O)C2)c(NC(=O)Nc2cnc(C#N)cn2)cc1Cl	6.31
COc1cc2c(Oc3ccc4[nH]c(C)cc4c3F)ncnc2cc1OCCCN1CCCC1	> 10
Oc1ccc(Nc2[nH]nc(-c3ccc(O)cc3)c2-c2ccc(O)cc2)cc1	0.1
O=c1[nH]c2sc3c(c2c2nc(-c4ccccc4)nn12)CCCC3	> 10
COc1cccc(C(CN)NC(=O)c2ccc(-c3ccncc3)cc2)c1 (centres undefined)	0.251
CO[C@@H](C(=O)N1Cc2[nH]nc(NC(=O)c3ccc(N4CCN(C)CC4)cc3)c2C1)c1ccccc1	> 10
COc1cc(-c2ccc3c(c2)Nc2ccc(C(=O)NCc4cccc(F)c4)cc2NC3=O)ccc1O	> 10

SMILES	Ki [µM]
NC(=O)c1cccc2[nH]c(-c3ccc(NC(=O)c4cccc(S(=O)(=O)N5CCOCC5)c4)cc3)nc12	> 10
CCOc1nc(C(=O)NCc2ccccc2S(N)(=O)=O)cc(N)c1Cl	> 10
Cc1c(-c2cccc(OCc3ccccc3)c2)c2c(N)ncnc2n1[C@H]1CC[C@@H](N2CCCC2)CC1	> 10
CCCOn1c2ccc(Cl)cc2c(=O)c2c(C)nn(C)c21	> 10
Nc1ncc(-c2ccoc2)c2scc(-c3ccc(NC(=O)Nc4ccccc4F)cc3)c12	> 10
O=c1[nH]cnc2c1oc1ccc(Cl)cc12	> 10
Nc1nccc2scc(-c3ccc(NC(=O)Nc4cccc(Br)c4)cc3)c12	> 10
Cc1ccccc1NC(=O)Nc1ccc(-c2coc3ncnc(N)c23)cc1	2.51
CC1CSc2c(C(=O)O)c(=O)c3cc(F)c(N4CC[C@@H](N)C4)cc3n21 (some centres undefined)	> 10
COc1cc(-c2nn([C@H]3CC[C@H](N4CCN(C(C)=O)CC4)CC3)c3ncnc(N)c23)ccc1NC(=O)c1cc2ccccc2n1C	> 10
NC(=O)c1cc(-c2ccnc(N)n2)[nH]c1-c1ccc(Cl)cc1F	3.98
O=c1c(NCc2ccc(Cl)c(Cl)c2)c(Nc2ccncc2)c1=O	0.501
COc1cc(/C=C2\S/C(=N\c3ccccc3)NC2=O)ccc1O	5.01
COc1cc(N2CCC(N3CCN(C)CC3)CC2)ccc1Nc1ncc(Cl)c(Nc2ccccc2S(=O)(=O)C(C)C)n1	> 10
Nc1ncnc2c1N=C(c1ccc(NC(=O)Nc3cccc(C(F)(F)F)c3)cc1)CCN2	2.51
CC[C@@H]1C(=O)N(C)c2cnc(Nc3ccc(C(=O)NC4CCN(C)CC4)cc3OC)nc2N1C1CCCC1	> 10
Nc1n[nH]c2cc(-c3ccc(NC(=O)Nc4cccc(C(F)(F)F)c4)cc3)ccc12	> 10
Cn1cc(-c2cnc(N)c3c(-c4ccc(NC(=O)Nc5cccc(F)c5)cc4)csc23)cn1	2
Cc1ccc(NC(=O)Nc2ccc(-c3csc4c(-c5cnn(C)c5)cnc(N)c34)cc2)cc1	> 10
N#CCOc1ccc(Nc2nc(Nc3cccc(S(N)(=O)=O)c3)ncc2Br)cc1	0.398
C[C@H](Nc1c(Nc2ccncc2)c(=O)c1=O)C1CCCCC1	> 10
NC(=O)c1cc2c(-c3cc(C(F)(F)F)cc(C(F)(F)F)c3)cncc2s1	> 10
CCOc1ccccc1/C=N/NC(=O)c1nnn(-c2nonc2N)c1N1CCCC1	> 10
CCOc1nc(C(=O)NCc2ccncc2)cc(N)c1C#N	> 10
CN1CC[C@@H](c2c(O)cc(O)c3c(=O)cc(-c4ccccc4Cl)oc23)[C@@H](O)C1	> 10

The next lines start with the values.

Ki [µM]	SMILES
> 10	FC(F)(F)c1ccc(Cn2cc(-c3ccc4[nH]ncc4c3)nn2)c(C(F)(F)F)c1
1	CCCC(=O)Nc1n[nH]c2ccc(-c3cn(Cc4ccccc4)nn3)cc12
> 10	O=C(Nc1cnccn1)Nc1ccnc2c(C(F)(F)F)cccc12
> 10	Cc1cccc(-c2c(-c3ccncc3)nc(NC[C@@H](N)Cc3ccccc3)n(C)c2=O)c1
> 10	Cc1nccn2c(-c3ccnc(NCC(C)(C)C(=O)O)n3)c(-c3ccc(F)cc3F)nc12
> 10	Nc1nonc1-n1nnc(C(=O)N/N=C/c2cccs2)c1-c1ccccc1
0.631	CS(=O)(=O)Nc1ccc(-c2ccc3[nH]nc(N)c3c2)cc1
> 10	CC(=O)Nc1cc(N)c(C#N)c(-c2ccsc2)n1
2.51	c1ccc(Nc2nc(-c3ccc4[nH]ncc4c3)cs2)cc1
1.26	CC(C)Nc1c(-c2ccc3[nH]ncc3c2)nc2ncccn12
> 10	CC[C@H](CO)Nc1nc(NCc2ccccc2)c2ncn(C(C)C)c2n1
> 10	C[C@@H](Nc1nccc(-c2c(-c3ccc(F)cc3)nc3occn23)n1)c1ccccc1
> 10	COc1nccc(-c2c(-c3ccc(F)cc3)ncn2C2CCNCC2)n1
0.316	Cc1n[nH]c2ccc(-c3cncc(OC[C@@H](N)Cc4cccc(OC(F)(F)F)c4)c3)cc12
2.51	CCCCOc1ncnc2[nH]cc(-c3ccccc3)c12
7.94	CCCS(=O)(=O)Nc1ccc(-c2ccc3[nH]nc(NC(=O)CC)c3c2)cc1
> 10	COc1cccc(NC(=O)c2cnn3c(-c4ccccc4)ccnc23)c1
> 10	Nc1noc2cccc(-c3cccc(O)c3)c12
> 10	Cc1cc(C)c2oc(Nc3ccc(-c4cccc(C(N)=O)c4N)cc3F)nc2c1
0.631	COc1cccc([C@@H](C)NC(=O)c2ccc(-c3ccncn3)cc2)c1

Ki [µM]	SMILES
> 10	O=C(Nc1cccc(C(F)(F)F)n1)Nc1ccnc2c(Cl)cccc12
3.98	O=C(Nc1cnccn1)Nc1ccnc2ccc(C(F)(F)F)cc12
0.2	O=C(O)c1ccccc1Nc1ccnc(Nc2ccc3cn[nH]c3c2)n1
1	O=C1NCCc2[nH]c(-c3ccnc(/C=C/c4ccccc4)c3)cc21
2	O=c1nc(-c2ccc3[nH]ncc3c2)cc(-c2ccccc2)[nH]1
10	COc1ccc(C(=O)Nc2cnc3[nH]cc(-c4ccccc4)c3c2)cc1
3.16	NC(=O)c1cc2c(-c3cccc(F)c3)cncc2s1
1.26	O=C(Nc1cnccn1)Nc1ccnc2ccccc12
> 10	Cc1cccc(NC(=O)Nc2ccc(-c3noc4ncnc(N)c34)cc2)c1
> 10	Clc1csc2ncnc(Nc3ccccc3)c12
0.631	Nc1n[nH]c2ccc(-c3nnn(Cc4ccccc4)c3-c3ccccc3)cc12
> 10	CCCC(=O)Nc1nn(C(=O)CC)c2nc3ccccc3cc12
1.58	O=C(Nc1n[nH]c2nc3ccccc3cc12)c1ccncc1
> 10	COc1ccc(CNc2c(Nc3ccc4[nH]ncc4c3)c(=O)c2=O)cc1
1	OCC[C@@H](Nc1nc2ccc(-c3ccncc3)cc2s1)c1ccccc1
> 10	CN1CCN(CCCNc2cccc(-c3nc4c(C(N)=O)cccc4[nH]3)n2)CC1
> 10	COc1ccc2c(NC(=O)Nc3cccc(Br)n3)ccnc2c1
2	CN(C)CC(=O)Nc1n[nH]c2ccc(-c3cn(Cc4ccccc4)nn3)cc12
> 6.31	c1ccc(CNc2nc(-c3ccc4[nH]ncc4c3)cs2)cc1
0.398	COc1cccc([C@@H](C)NC(=O)c2ccc(-c3ccncc3)cc2)c1

Ki [µM]	SMILES
> 10	CNCc1ccc(-c2[nH]c3cc(F)cc4c3c2CCNC4=O)cc1
1.26	Cc1n[nH]c2ccc(-c3cncc(OCC(CN)Cc4ccccc4)c3)cc12 (centres undefined)
> 10	CC(C)(O)CNc1nccc(-c2c(-c3ccc(F)cc3F)nc3c(CC4CC4)nccn23)n1
> 10	CCc1nccn2c(-c3ccnc(NCC(C)(C)O)n3)c(-c3ccc(F)cc3F)nc12
0.316	CCCS(=O)(=O)Nc1ccc(-c2ccc3[nH]nc(N)c3c2)cc1
> 10	O=c1[nH]c2sc3c(c2c2nc(-c4cccnc4)nn12)CCCC3
> 10	CNC(=O)/C=C/c1cnc(N)c2c(-c3ccc4c(c3)OCO4)csc12
> 10	Brc1ccc2[nH]nc(-c3ccccc3)c2c1
> 10	O=C(c1cc(-c2ccc3[nH]ncc3c2)on1)N1CCC[C@@H](O)C1
> 10	CC(C)Cn1c(N)nc2ccc(-c3c(-c4ccc(F)cc4)nc4sccn34)cc21
> 10	NC(=O)c1cc(-c2cccc(N)c2)cc2cccnc12
> 10	O=c1[nH]cc(I)c2nc(-c3ccccc3)cn12
2.51	c1ccc(CNc2nc3ccc(-c4ccncc4)cc3s2)cc1
0.501	O=C(NCc1ccc(Cl)c(Cl)c1)Nc1ccc2[nH]ncc2c1
> 10	Cc1ccc(NC(=O)Nc2ccc(-c3csc4ncnc(N)c34)cc2)cc1C
> 10	Cc1nccn2c(-c3ccnc(NCC(C)(C)O)n3)c(-c3ccc(F)cc3F)nc12
> 10	CC(C)Cn1c(N)nc2c(F)cc(-c3c(-c4ccc(F)cc4)nc4sccn34)cc21
0.794	Cc1cccc(NC(=O)Cc2ccc(-c3cccc4[nH]nc(N)c34)cc2)c1
> 10	OCCNc1cc2cc(-c3ccccc3)ccc2cn1
